Experimental data published in ChEMBL document CHEMBL1150271, “Corymbones A and B, phloroglucinols with thyrotropin releasing hormone receptor 2 binding affinity from the flowers of Corymbia peltata” (J Nat Prod, 2008).
The source made the active and inactive calls. No cut-off for these calls is given here.

Legend:
[1] = target: T1, Thyrotropin-releasing hormone receptor 2 (Rattus norvegicus) (UniProt A6IZR3); assay: Displacement of [3H]3-methylhistidyl-TRH from rat recombinant TRH2 receptor expressed in […] cells up to 1 mM; type: cell-based
T1 sequence (whole entry): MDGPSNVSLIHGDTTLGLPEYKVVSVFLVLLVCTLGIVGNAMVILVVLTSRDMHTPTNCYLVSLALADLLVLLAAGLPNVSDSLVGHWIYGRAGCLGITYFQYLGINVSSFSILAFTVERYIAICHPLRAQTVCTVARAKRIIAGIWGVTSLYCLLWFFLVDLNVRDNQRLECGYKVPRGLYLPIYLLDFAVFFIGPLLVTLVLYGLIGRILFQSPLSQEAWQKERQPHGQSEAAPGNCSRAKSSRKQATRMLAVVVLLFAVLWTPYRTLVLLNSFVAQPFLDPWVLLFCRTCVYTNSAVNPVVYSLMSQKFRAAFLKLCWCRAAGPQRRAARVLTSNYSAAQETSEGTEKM

[2] = target: T2, Thyrotropin-releasing hormone receptor 2 (Rattus norvegicus, UniProt A6IZR3); assay: Displacement of [3H]3-methylhistidyl-TRH from rat recombinant TRH2 receptor expressed in […] cells; type: cell-based
T2 sequence (A6IZR3 whole entry): T1 sequence (whole entry)

| Activity [1] | IC50 [2] | Compound |
| --- | --- | --- |
| inactive |  | Cc1c(O)cc(O)c(C(=O)CCc2ccccc2)c1O |
|  | 23 µM | Cc1c(O)c(C(=O)CCc2ccccc2)c(O)c(C(CCc2ccccc2)C2=C(O)C(C)(C)C(=O)C(C)(C)C2=O)c1O (centres undefined) [CORYMBONE A] |
|  | 19 µM | Cc1c(O)c(C(=O)CCc2ccccc2)c(O)c(C(CC(C)C)C2=C(O)C(C)(C)C(=O)C(C)(C)C2=O)c1O (centres undefined) [CORYMBONE B] |
|  | 23 µM | NC(=O)[C@@H]1CCCN1C(=O)[C@H](Cc1cnc[nH]1)NC(=O)[C@@H]1CCC(=O)N1 [PROTIRELIN] |
